These results are taken from ChEMBL document CHEMBL3992486 (Medchemcomm, 2016).

Values after ≈ are worked out from the molar mass of the structure shown.

A short description of data set [1]: Selectivity index, ratio of GI50 for human MCF7 cells to MIC for dormant Mycobacterium bovis BCG ATCC 35743. It is filed as toxicity. The settings on record: pooled result: one value given for 3 cell lines, strains, targets or settings, read-out: Selectivity Index.
The nature of data set [2]: Selectivity index, ratio of GI50 for human MCF7 cells to MIC for dormant Mycobacterium tuberculosis H37Ra ATCC 25177. The settings on record: pooled result: one value given for 3 cell lines, strains, targets or settings, read-out: Selectivity Index. It counts as toxicity.
Data set [3] concerns Mycobacterium tuberculosis. Description: Antimycobacterial activity against dormant Mycobacterium bovis BCG ATCC 35743 after 12 days by neutral red dye based two-fold dilution method. The settings on record: BCG str. ATCC 35743, 288 h. It counts as functional.
Data set [4] relates to Mycobacterium tuberculosis. Kind of data set: Antimycobacterial activity against dormant Mycobacterium tuberculosis H37Ra ATCC 25177 after 12 days by XTT dye based two-fold dilution method. It is filed as functional. The settings on record: H37Ra ATCC 25177, 288 h.
A short description of data set [5]: Cytotoxicity against human A549 cells by MTT assay. It is filed as cell-based. For orientation: Tetrazolium dyes change colour on reduction, which living cells bring about.
Data set [6] in a line: Cytotoxicity against human MCF7 cells by MTT assay. It is filed as cell-based.

As a reminder, the MIC is the lowest concentration that inhibits growth of the organism. Consider `Cc1ccc2c(c1)cc(C1SCC(=O)N1NC(=O)c1ccncc1)c1nnnn12` (centres undefined), for which the selectivity ratio amounted to 29.2 in data set [1] and 115 in data set [2]. Further, the values for the MIC in data set [3] and in data set [4] were 8430 µM (≈ 3420 µg/mL) and 2140 µM (≈ 868 µg/mL), respectively.

Consider `Cc1cccc2cc(C3SCC(=O)N3NC(=O)c3ccncc3)c3nnnn3c12` (centres undefined), for which the results for the selectivity ratio in data set [1] and in data set [2] were 476 and 139, respectively. Moreover, the MIC in data set [3] is 510 µM (≈ 207 µg/mL); in data set [4], 1770 µM (≈ 718 µg/mL).

As to `CO[C@H]1/C=C/O[C@@]2(C)Oc3c(C)c(O)c4c(O)c(c(/C=N/N5CCN(C)CC5)c(O)c4c3C2=O)NC(=O)/C(C)=C\C=C\[C@H](C)[C@H](O)[C@@H](C)[C@@H](O)[C@@H](C)[C@H](OC(C)=O)[C@@H]1C` [RIFAMPIN], the selectivity ratio was 1750 in data set [1] and over 5000 in data set [2]. In addition, the MIC in data set [3] amounted to 21 µM (≈ 17.3 µg/mL); in data set [4], 24 µM (≈ 19.8 µg/mL).

With `Cc1ccc2cc(C3SCC(=O)N3NC(=O)c3ccncc3)c3nnnn3c2c1` (centres undefined), the selectivity ratio in data set [1] stood at 833; in data set [2] it was 94.3. Besides, the minimal inhibitory concentration (MIC) came to 300 µM (≈ 122 µg/mL) in data set [3] and 2610 µM (≈ 1060 µg/mL) in data set [4].

Take `COc1ccc2c(c1)cc(C1SCC(=O)N1NC(=O)c1ccncc1)c1nnnn12` (centres undefined): the selectivity ratio is 11.8 in data set [1] and 238 in data set [2]. Besides, the minimal inhibitory concentration (MIC) in data set [3] was determined as 140 µM (≈ 59 µg/mL); in data set [4], 990 µM (≈ 417 µg/mL).

`O=C(NN1C(=O)CSC1c1cc2ccccc2n2nnnc12)c1ccncc1` (centres undefined): the values for the selectivity ratio in data set [1] and in data set [2] were 588 and 18.9, respectively. This molecule also registered an MIC in data set [3] of 430 µM (≈ 168 µg/mL).

As usually defined, the GI50 is the concentration that inhibits growth by half. As to `CC(=O)O[C@H]1C(=O)[C@@]2(C)[C@H]([C@H](OC(=O)c3ccccc3)[C@]3(O)C[C@H](OC(=O)[C@H](O)[C@@H](NC(=O)c4ccccc4)c4ccccc4)C(C)=C1C3(C)C)[C@]1(OC(C)=O)CO[C@@H]1C[C@@H]2O` [PACLITAXEL], the concentration for 50% growth inhibition (GI50) is 80 µM in data set [5] and 87 µM in data set [6].

In the case of `COc1ccc2cc(C3SCC(=O)N3NC(=O)c3ccncc3)c3nnnn3c2c1` (centres undefined), the selectivity ratio in data set [1] worked out at 667; in data set [2] it was 143. For the same molecule, the MIC in data set [3] was 360 µM (≈ 152 µg/mL); in data set [4], 1660 µM (≈ 700 µg/mL).
